Measurements reported in patent publication US20090022694A1, “SIRT1 INHIBITION” (priority 2005, published 2009).

Molecular target: T1, SirT1 (Homo sapiens, UniProt Q96EB6)
T1 sequence (Q96EB6 1-747): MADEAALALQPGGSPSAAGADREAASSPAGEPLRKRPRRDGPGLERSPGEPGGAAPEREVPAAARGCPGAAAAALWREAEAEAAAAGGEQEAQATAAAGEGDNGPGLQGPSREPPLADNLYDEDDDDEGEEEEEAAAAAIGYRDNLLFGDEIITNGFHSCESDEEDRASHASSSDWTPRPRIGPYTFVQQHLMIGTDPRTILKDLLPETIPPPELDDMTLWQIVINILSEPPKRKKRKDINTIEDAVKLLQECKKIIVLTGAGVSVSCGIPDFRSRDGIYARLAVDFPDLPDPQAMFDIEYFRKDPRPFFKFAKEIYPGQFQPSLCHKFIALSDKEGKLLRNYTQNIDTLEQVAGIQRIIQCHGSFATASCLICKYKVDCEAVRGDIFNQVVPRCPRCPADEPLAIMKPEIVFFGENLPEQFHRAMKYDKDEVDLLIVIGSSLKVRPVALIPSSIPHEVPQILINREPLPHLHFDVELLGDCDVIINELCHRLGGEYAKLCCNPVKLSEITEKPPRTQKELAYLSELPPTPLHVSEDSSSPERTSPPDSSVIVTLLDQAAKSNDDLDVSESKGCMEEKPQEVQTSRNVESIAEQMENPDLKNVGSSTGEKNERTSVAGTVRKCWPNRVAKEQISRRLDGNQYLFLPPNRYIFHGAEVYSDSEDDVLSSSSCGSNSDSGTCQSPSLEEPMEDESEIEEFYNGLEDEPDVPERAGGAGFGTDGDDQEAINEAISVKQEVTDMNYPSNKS
Test: SirT1 enzymatic assay, p53-382 Fluor-de-Lys (FdL)
Type: biochemical
Settings: for IC50: Table 1, exemplary compounds
From the text: The ability of a compound to inhibit SIRT1 can be evaluated in many ways. In some embodiments, interaction with, e.g., binding of, SIRT1 can be assayed in vitro. The reaction mixture can include a SIRT1 co-factor such as NAD and/or a NAD analog. In other embodiments, the ability of the compound to inhibit an enzymatic function, e.g., deacetylase activity of SIRT1, can be assayed in vitro. Assays can include determining the IC50 of the compound.
An exemplary assay method includes a multi-well format of the SirT1 enzymatic assay that is based on the commercial “Fluor-de-Lys” assay principle by Biomol, which is fluorogenic (www.biomol.com/store/Product_Data_PDFs/ak500.pdf). In this assay, deacetylation of the s-amino function of a lysyl residue is coupled to a fluorogenic development step that is dependent on the unblocked ε-amino functionality and generates fluorescent aminomethylcoumarin. Fluorescence can be read on a commercial […]. Standard enzymological analyses can be used to determine Ki.

Row | SMILES | activity against the SirT1 enzyme compared with the enantiomer (isomer with negative optical rotation vs enantiomer with positive optical rotation) | IC50 [µM]
1 | NC(=O)C1CCCc2c1[nH]c1ccc(Cl)cc21 (single isomer, unassigned) [isomer of compound 4 having a negative optical rotation, 6-Chloro-2,3,4,9-tetrahydro-1H-carbazole-1-carboxylic acid amide] | greater activity against the SirT1 enzyme | 
2 | O=C(O)C1CCCc2c1[nH]c1ccc(O)cc21 (stereo not shown) [Compound 54, 6-hydroxy-2,3,4,9-tetrahydro-1H-carbazole-1-carboxylic acid] |  | > 10
3 | NC(=O)C1NCCc2c1[nH]c1ccc(Cl)cc21 (stereo not shown) [Compound 56, 6-chloro-2,3,4,9-tetrahydro-1H-pyrido[3,4-b]indole-1-carboxamide] |  | > 10
4 | CC(=O)N1CCc2c([nH]c3ccc(Cl)cc23)C1C(N)=O (stereo not shown) [Compound 58, 2-acetyl-6-chloro-2,3,4,9-tetrahydro-1H-pyrido[3,4-b]indole-1-carboxamide] |  | > 10
